PMC12670400, “LEKTI-Grafted Sunflower Trypsin Inhibitor: A Potential Therapeutic for Skin Diseases” (Journal of Medicinal Chemistry, 2025)
Structures can show the parent of a compound that is named as a salt. Where two headings read alike, the source gives them in different places. Bridge positions count the residues as written; N and C are the ends. Peptide text beside a SMILES is read from it.

Experiments:
trypsin = system: trypsin; set-up: method as in PMID 143965; conditions: cited from earlier work
plasma kallikrein = system: plasma kallikrein; set-up: method as in PMID 143965; conditions: cited from earlier work
plasmin [1] = system: plasmin; set-up: method as in PMID 143965; conditions: cited from earlier work
thrombin = system: thrombin; set-up: method as in PMID 143965; conditions: cited from earlier work
KLK7 [2] = biological target: T1, KLK7 (Homo sapiens, UniProt P49862); assay: Protease activity assay: inhibition of recombinant KLK7 (Mca-RPKPVE-Nval-WRK(Dnp)-NH2 substrate); format: biochemical; set-up: purchased R&D Systems 2624-SE; conditions: n = 3; 100 nM KLK7, 37°C, 20 hours; read-out: IC50 (n = 3)/nM for KLKs: KLK7
Excerpt: using the following equation: […]
(1 picture or pasted object on this page, not shown here)

KLK5 [3] = biological target: T2, KLK5 (Homo sapiens, UniProt Q9Y337); assay: Protease activity assay: inhibition of recombinant KLK5 (Boc-VPR-AMC substrate); format: biochemical; conditions: for selectivity for KLK5 against select KLKs in skin: KLK5 versus other skin KLKs; for IC50: n = 3, 10 nM KLK5, Boc-VPR-AMC 100 µM, PBS pH 8.0, read-out: IC50 (n = 3)/nM for KLKs: KLK5
T2 construct: purchased R&D Systems 1108-SE
T2 sequence (Q9Y337 23-293): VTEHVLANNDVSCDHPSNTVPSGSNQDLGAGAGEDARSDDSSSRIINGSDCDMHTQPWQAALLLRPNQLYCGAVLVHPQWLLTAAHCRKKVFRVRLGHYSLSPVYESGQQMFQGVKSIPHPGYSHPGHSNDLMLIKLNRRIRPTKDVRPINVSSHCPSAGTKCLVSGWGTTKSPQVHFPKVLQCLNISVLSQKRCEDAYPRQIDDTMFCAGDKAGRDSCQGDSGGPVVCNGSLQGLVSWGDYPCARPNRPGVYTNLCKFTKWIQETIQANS
Method: Inhibitory activity against KLK5 was evaluated using the fluorogenic substrate Boc-VPR-AMC for KLK5 (Table ). […] The P1–P1′ reactive site (Arg5 to Ser6) is critical for inhibitor binding, with the P1′ position contributing up to 50% of the total association energy. , The conserved serine at P1′ in Bowman-Birk inhibitors (BBIs) is essential for function. […] Preservation of serine in the P1′ position restored inhibitory activity seen in 5 and 6. Preserving the native serine restored efficacy to the nanomolar range (5: 31 ± 7 nM; 6: 114 ± 11 nM).
Methods for biological experiment
SFTI analogues were created by individual amino acid substitutions in PYMOL (Python Molecular Graphics System) using the existing solution NMR structure of native SFTI - 1 (1JBL) found in the RCSB (Research Collaboratory for Structural Bioinformatics) database. Residues of 2 were mutated as follows: L5R, I10H, and F12W with conserved SFTI-1 backbone structure. Other SFTI based analogues were further modified using PYMOL. Currently, there are no SFTI-1 and Kallikrein 5 co-crystal structures found in the RCSB database. Superimposing the existing crystal structure of SFTI-1 and Trypsin complex (4XOJ) with Kallikrein 5 crystal structure (2PSX) was performed with PYMOL. Ab-initio docking between KLK5 and 2 were performed with HADDOCK 2.4 1, 2, with binding active site parameter set to Arg2, Cys3, Thr4, Arg5, Ser6 for 2 and Ser195, His57, and Asp102 for KLK5 catalytic triad. PRODIGY 3-5, set at 25 °C, was used to predict dissociation constant and binding interactions of docked clusters. Structural visualization and alignment were performed with PYMOL 6, and comparative sequence analysis was performed with MEGA11 7.
A fluorescence spectrometer using SpectraMax® i3x plate reader (Molecular Devices, United States) was used to measure the relative fluorescence unit (RFU) on a 96-well black microplate (Grenier Bio-one, cat no. 655074). The wavelengths were set to 360/460 nm (excitation/emission) for the substrate Boc-VPR-AMC (Bachem AG, cat no. 4003460) and 320/405nm for the substrate Mca-RPKPVE-Nval-WRK(Dnp)-NH2 Fluorogenic MMP Substrate (R&D Systems Biotechne, cat no.ES002). The Boc-VPR-AMC stock solution was prepared by dissolving the solid form in dimethyl sulfoxide to 100 mM. Mca-RPKPVE-Nval-WRK(Dnp)-NH2 fluorogenic MMP Substrate is supplied as stock solution at 10.0 mg/mL in dimethyl sulfoxide. Boc-VPR-AMC was used as a substrate for KLK5, 8 and 14. Mca-RPKPVE-Nval-WRK(Dnp)-NH2 was used as a substrate for KLK7. The ligand-only solution serves as a negative control (minimum RFU, 100% inhibition), and enzyme-only was served as positive (maximum RFU, 0% inhibition). The activities of proteases were measured and readout against the standard curve made in serial dilutions of tested recombinant KLKs, ranging from 0nM to 60nM. Each assay was done in triplicates and repeated at least for three times […]
Assessment of analogue mediated inhibition of KLK5, KLK7, KLK8, and KLK14 […]
Recombinant KLK5 (R&D Systems, cat no. 1108-SE) was diluted to a final concentration of 10 nM in 1X PBS (pH 8.0). KLK5 was pre -incubated on ice for 1 hour with serial dilutions of SFTI-derived analogues to assess inhibitory activity. After incubation, 20 µL of each mixture was transferred to we lls of a 96-well microplate in triplicates. The enzymatic reaction was initiated by adding 100 µL of Boc -VPR-AMC substrate (final concentration 100 µM) to each well. Fluorescence (RFU) was measured using a SpectraMax® i3x plate reader with chamber temperature maintained at 37°C. Readings were started at 0 minutes (baseline) and another […]
Recombinant KLK7 (R&D Systems , cat no. 2624-SE) and KLK14 (R&D Systems, cat no. 2664-SE) were activated by adding 1 mM CaCl ₂ 0.05% v/v Brij-35 (Sigma, cat no. […]
incubated at 37°C for 1 hour. Reactions were stopped by adding EDTA to a final concentration of 50 mM (Sigma, cat no. EDS-100G) KLK8 (catalytic domain only; R&D Systems, cat no. 2025-SE-010) was activated separately with 11 nM lysyl […]

plasmin [4] = biological target: plasmin; set-up: method as in PMID 7543841; conditions: read-out: Ki against trypsin-like plasmin; cited from earlier work
LEKTI-2 (Homo sapiens) = LEKTI-2 (Homo sapiens) (UniProt Q5DT21); conditions: cited from earlier work
[5] = biological target: Kallikrein-related peptidase 5 (KLK5) (UniProt Q9Y337); assay: enzyme inhibition assay (fluorogenic substrate); inhibition of KLK5 activity by the peptide, fluorogenic substrate Boc-VPR-AMC, n = 3; conditions in the Supporting Information
KLK8 [6] = biological target: T3, KLK8 (UniProt O60259 33-260); assay: enzyme inhibition assay (fluorogenic substrate); selectivity: inhibition of KLK7, KLK8 or KLK14 activity by the peptide, n = 3; substrates and conditions in the Supporting Information
T3 construct: Kallikrein 8 (KLK8); construct and source are in the Supporting Information
T3 sequence (looked up): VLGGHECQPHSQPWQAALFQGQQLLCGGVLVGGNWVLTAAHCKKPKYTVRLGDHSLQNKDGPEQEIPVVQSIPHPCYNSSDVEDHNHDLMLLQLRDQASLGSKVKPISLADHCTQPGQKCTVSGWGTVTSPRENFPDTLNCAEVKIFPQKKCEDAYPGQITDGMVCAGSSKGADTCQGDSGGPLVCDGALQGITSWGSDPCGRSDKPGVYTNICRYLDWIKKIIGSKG

KLK14 [7] = biological target: T4, KLK14 (UniProt Q9P0G3); assay: as above
T4 sequence (Q9P0G3 41-267, species assumed, looked up): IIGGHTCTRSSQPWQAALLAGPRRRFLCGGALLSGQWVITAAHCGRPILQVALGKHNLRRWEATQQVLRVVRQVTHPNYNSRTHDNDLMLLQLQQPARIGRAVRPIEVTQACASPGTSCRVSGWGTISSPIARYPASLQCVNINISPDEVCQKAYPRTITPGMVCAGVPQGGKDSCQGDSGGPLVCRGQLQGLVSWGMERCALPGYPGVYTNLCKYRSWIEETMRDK

KLK8 [8] = biological target: T5, KLK8 (Homo sapiens, UniProt O60259); set-up: method as in Chen et al. (2016); conditions: ref Chen et al. (2016); read-out: IC50 (n = 3)/nM for KLKs: KLK8; cited from earlier work
T5 construct: purchased R&D Systems 2025-SE-010
T5 sequence (O60259 33-260): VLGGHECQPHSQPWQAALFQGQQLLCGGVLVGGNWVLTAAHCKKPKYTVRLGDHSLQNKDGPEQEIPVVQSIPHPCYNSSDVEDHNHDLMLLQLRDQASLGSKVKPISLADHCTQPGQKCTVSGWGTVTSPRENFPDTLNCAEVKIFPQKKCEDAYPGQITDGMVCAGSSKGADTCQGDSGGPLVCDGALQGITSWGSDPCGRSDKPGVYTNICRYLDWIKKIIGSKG

KLK5 [9] = biological target: T2, KLK5; set-up: method as in Chen et al. (2016); conditions: earlier work of the authors; ref Chen et al. (2016); read-out: IC50 (n = 3)/nM for KLKs: KLK5; cited from earlier work
aprotinin (Bos taurus) = aprotinin (Bos taurus) (UniProt P00974); conditions: cited from earlier work
KLK14 [10] = biological target: T6, KLK14 (Homo sapiens, UniProt Q9P0G3); conditions: prior findings, reference not given; cited from earlier work
T6 construct: purchased R&D Systems 2664-SE
T6 sequence (Q9P0G3 25-251): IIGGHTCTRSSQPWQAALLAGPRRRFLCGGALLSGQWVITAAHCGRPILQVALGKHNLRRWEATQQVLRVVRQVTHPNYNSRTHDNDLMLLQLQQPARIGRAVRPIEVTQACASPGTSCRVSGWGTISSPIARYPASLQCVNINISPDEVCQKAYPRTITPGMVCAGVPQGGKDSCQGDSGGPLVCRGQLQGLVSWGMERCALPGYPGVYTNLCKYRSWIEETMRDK

KLK7 [11] = biological target: T1, KLK7; set-up: purchased R&D Systems 2624-SE; conditions: prior findings, reference not given; cited from earlier work
Target sequence in this assay (P49862 30-253): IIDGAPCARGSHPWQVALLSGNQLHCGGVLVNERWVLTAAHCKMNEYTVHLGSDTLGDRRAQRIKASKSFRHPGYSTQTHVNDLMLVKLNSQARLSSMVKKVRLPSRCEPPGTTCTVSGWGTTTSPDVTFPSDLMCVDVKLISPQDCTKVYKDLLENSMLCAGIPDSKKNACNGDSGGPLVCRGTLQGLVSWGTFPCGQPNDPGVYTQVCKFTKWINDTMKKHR

CCOC(=O)c1ccc(OC(=O)CCCCCN=C(N)N)cc1 [Gabexate mesylate]
IC50 (trypsin): 9400 nM
IC50 (plasma kallikrein): 41000 nM
IC50 (plasmin [1]): 30000 nM
IC50 (thrombin): 110000 nM

C[C@@H](O)[C@@H]1NC(=O)[C@@H]2CSSC[C@H](NC(=O)[C@H](CCC(=O)O)NC(=O)[C@@H]3CCCN3C(=O)[C@@H]3CCCN3C(=O)[C@H](CO)NC(=O)[C@H](CO)NC(=O)[C@H](CCCNC(=N)N)NC1=O)C(=O)N[C@@H](Cc1c[nH]c3ccccc13)C(=O)N1CCC[C@H]1C(=O)N[C@@H](CC(N)=O)C(=O)NCC(=O)N[C@@H](CO)C(=O)N2 [compound 9] (cyclo(GSCTRSSPPECWPN); disulfide 3-11)
IC50 (KLK7 [2]): 165 ± 12 nM
selectivity for KLK5 against select KLKs in skin (KLK5 [3]): 4 fold
IC50 (KLK5 [3]): 54 ± 6 nM

C[C@@H](O)[C@@H]1NC(=O)[C@@H]2CSSC[C@H](NC(=O)[C@H](CCC(=O)O)NC(=O)[C@@H]3CCCN3C(=O)[C@@H]3CCCN3C(=O)[C@H](CO)NC(=O)[C@H](CO)NC(=O)[C@H](CCCNC(=N)N)NC1=O)C(=O)N[C@@H](Cc1c[nH]c3ccccc13)C(=O)N1CCC[C@H]1C(=O)N[C@@H](CC(N)=O)C(=O)NCC(=O)N[C@@H](Cc1ccc(O)cc1)C(=O)N2 [compound 10] (cyclo(GYCTRSSPPECWPN); disulfide 3-11)
IC50 (KLK7 [2]): 240 ± 14 nM
selectivity for KLK5 against select KLKs in skin (KLK5 [3]): 4 fold
IC50 (KLK5 [3]): 56 ± 7 nM

Aprotinin
Ki (plasmin [4]): 0.07 nM

KLK5 (from UniProt Q9Y337)
Ki (LEKTI-2 (Homo sapiens)): 65 nM

Sunflower trypsin inhibitor-1 (SFTI-1) 1 (peptide)
IC50 [5]: 230 nM
IC50 (KLK8 [6]): 1290 nM
IC50 (KLK14 [7]): 30 nM

Sunflower trypsin inhibitor-1 [compound 1]
IC50 (KLK8 [8]): 1290 ± 51 nM
IC50 (KLK5 [9]): 230 ± 3 nM

plasmin (from UniProt P00747)
Ki (aprotinin (Bos taurus)): 0.07 nM

B1: LEKTI-2: LEKTI-2, encoded by SPINK9, selective binding to KLK5 (protein, UniProt Q5DT21 20-86, looked up)
Serine protease inhibitor …: IECAKQTKQMVDCSHYKKLPPGQQRFCHHMYDPICGSDGKTYKNDCFFCSKVKKTDGTLKFVHFGKC
inhibition of KLK14 (KLK14 [10]): without potently inhibiting
inhibition of KLK7 (KLK7 [11]): without potently inhibiting
